From PMC5589637, “New perspectives of cobalt tris(bipyridine) system: anti-cancer effect and its collateral sensitivity towards multidrug-resistant (MDR) cancers” (Oncotarget, 2017)
pIC50: −log10 of the molar value.

Key:
[1] = tested on: HCT-8 taxol-sensitive cancer cells; assay: MTT cytotoxicity, taxol-sensitive HCT-8; format: cell-based; conditions: 72 h
Description: (§1) All cells were obtained from the American Type Culture Collection (Rockville, MD, USA) unless otherwise specified. Immortalized wild-type and Atg7-deficient mouse embryonic fibroblasts (MEFs) were kindly provided by Professor Masaaki Komatsu (Juntendo University, School of Medicine, Japan). Taxol-resistant types of MCF-7, HCT-8, A549 cancers cells and cisplatin-resistant SGC7901 cancer cells were purchased from KeyGEN BioTECH, China. Cisplatin-sensitive or –resistant A2780, OV2008 and C13 cancer cells were kindly provided by Prof. Benjamin Tsang (Department of Obstetrics and Gynecology and Department of Cellular and Molecular Medicine, University of Ottawa, Canada). HCT116 p53^+/+ and p53^−/− isogenic human colon cancer cells were kindly provided by Professor Bert Vogelstein (Ludwig Center at Johns Hopkins, Howard Hughes Medical Institute, USA). All media were supplemented with 10% fetal bovine serum and antibiotics penicillin (50 U/ml) and streptomycin (50 μg/ml; Invitrogen, Paisley, Scotland, UK). All cell cultures were incubated at 37°C in a 5% humidified CO2 incubator.
(§2) All tested compounds were dissolved in DMSO at a final concentration of 50 mmol/L and stored at −20°C before use. Cytotoxicity was assessed by using the 3-(4,5-dimethylthiazol-2-yl)-2, 5-diphenyltetrazolium bromide (MTT) (5.0 mg/ml) assay as previously described. Briefly, 4×10^3 cells per well were seeded in 96-well plates before drug treatments. After overnight culture, the cells were then exposed to different concentrations of selected compounds ([…]) for 72 hours. Cells without drug treatment were used as control. Subsequently, MTT (10 μL) solution was added to each well and incubated at 37°C for 4 hours followed by the addition of 100 μL solubilization buffer (10%SDS in 0.01 mol/L HCl) and overnight incubation. A570 nm was then determined in each well on the next day. The percentage of cell viability was calculated using the following formula: Cell viability (%) = Atreated/Acontrol × 100. Data were obtained from three independent experiments.

[2] = tested on: MCF-7 taxol-sensitive cancer cells; assay: MTT cytotoxicity, taxol-sensitive MCF-7; format: cell-based
Description: as §1, §2

[3] = tested on: taxol-resistant MCF-7, HCT-8, and A549 cancer cells; assay: MTT cytotoxicity, summary over taxol-sensitive/resistant MCF-7, HCT-8 and A549 pairs; format: cell-based; conditions: IC50 of taxol-resistant over taxol-sensitive cells; over MCF-7, HCT-8 and A549
Method: as §2

[4] = tested on: A549 taxol-resistant cancer cells; assay: MTT cytotoxicity, taxol-resistant A549; format: cell-based; conditions: for pIC50: A549 taxol-resistant, MTT, 72 h; for Resistant Factor, A549: IC50 of taxol-resistant cells over IC50 of taxol-sensitive cells
Description: as §1, §2

[5] = tested on: MCF-7 taxol-resistant cancer cells; assay: MTT cytotoxicity, taxol-resistant MCF-7; format: cell-based; conditions: for pIC50: MCF-7 taxol-resistant, MTT, 72 h; for Resistant Factor, MCF-7: IC50 of taxol-resistant cells over IC50 of taxol-sensitive cells
Description: as §1, §2

[6] = tested on: HCT-8 taxol-resistant cancer cells; assay: MTT cytotoxicity, taxol-resistant HCT-8; format: cell-based; conditions: for pIC50: HCT-8 taxol-resistant, MTT, 72 h; for Resistant Factor, HCT-8: IC50 of taxol-resistant cells over IC50 of taxol-sensitive cells
Description: as §1, §2

[7] = tested on: A549 taxol-sensitive cancer cells; assay: MTT cytotoxicity, taxol-sensitive A549; format: cell-based; conditions: 72 h
Description: as §1, §2

[8] = tested on: H1299 (lung cancer) cells; assay: MTT cytotoxicity assay, H1299; format: cell-based, human; conditions: 72 h
Method: as §2

[9] = tested on: A2780 cisplatin-resistant cancer cells; assay: MTT cytotoxicity, cisplatin-resistant A2780; format: cell-based; conditions: for pIC50: A2780 cisplatin-resistant, MTT, 72 h; for Resistant Factor, A2780: cisplatin-resistant over cisplatin-sensitive IC50, A2780
Description: as §1, §2

[10] = tested on: HeLa (cervical cancer) cells; assay: MTT cytotoxicity assay, HeLa; format: cell-based; conditions: 72 h
Method: as §2

[11] = tested on: Hep3B (liver cancer) cells; assay: MTT cytotoxicity assay, Hep 3B; format: cell-based; conditions: 72 h
Method: as §2

[12] = tested on: H1975 (EGFR mutant lung cancer) cells; assay: MTT cytotoxicity assay, H1975; format: cell-based; conditions: 72 h
Method: as §2

[13] = tested on: LLC-1 (mouse lung cancer) cells; assay: MTT cytotoxicity assay, LLC-1; format: cell-based; conditions: LLC-1, MTT, 72 h
Method: as §2

[14] = tested on: OV2008 (cisplatin-sensitive) cells; assay: MTT cytotoxicity, OV2008 (cisplatin-sensitive); format: cell-based; conditions: 72 h, read-out: IC50 value, cisplatin-sensitive cancer, OV2008
Description: as §1, §2

[15] = tested on: MCF-7 (breast cancer) cells; assay: MTT cytotoxicity assay, MCF-7; format: cell-based; conditions: MCF-7, MTT, 72 h
Method: as §2

[16] = tested on: HCT116 p53^-/- colon cancer cells; assay: MTT cytotoxicity, HCT116 p53-/-; format: cell-based, human; conditions: for pIC50: HCT116 p53-/-, MTT, 72 h; for Resistant Factor, HCT116 p53-/- vs p53+/+: IC50 p53-/- over IC50 p53+/+
Description: as §1, §2

[17] = tested on: SGC-7901 cisplatin-sensitive cancer cells; assay: MTT cytotoxicity, cisplatin-sensitive SGC-7901; format: cell-based; conditions: 72 h
Description: as §1, §2

[18] = tested on: HCT116 p53^+/+ colon cancer cells; assay: MTT cytotoxicity, HCT116 p53+/+; format: cell-based, human; conditions: 72 h
Description: as §1, §2

[19] = tested on: SGC-7901 cisplatin-resistant cancer cells; assay: MTT cytotoxicity, cisplatin-resistant SGC-7901; format: cell-based; conditions: for pIC50: SGC-7901 cisplatin-resistant, MTT, 72 h; for Resistant Factor, SGC-7901: cisplatin-resistant over cisplatin-sensitive IC50, SGC-7901
Description: as §1, §2

[20] = tested on: A549 (EGFR wild-type lung cancer) cells; assay: MTT cytotoxicity assay, A549; format: cell-based; conditions: 72 h
Method: as §2

[21] = tested on: A2780 cisplatin-sensitive cancer cells; assay: MTT cytotoxicity, cisplatin-sensitive A2780; format: cell-based; conditions: 72 h
Description: as §1, §2

[22] = tested on: HepG2 (liver cancer) cells; assay: MTT cytotoxicity assay, HepG2; format: cell-based; conditions: 72 h
Method: as §2

[23] = tested on: C13 (cisplatin-resistant) cells; assay: MTT cytotoxicity, C13 (cisplatin-resistant); format: cell-based; conditions: for pIC50: C13 (cisplatin-resistant), MTT, 72 h, read-out: IC50 value, cisplatin-resistant cancer, C13; for Resistant Factor, OV2008/C13 pair: C13 (resistant) IC50 over OV2008 (sensitive) IC50
Description: as §1, §2

[24] = tested on: normal human LO2 hepatocytes; assay: MTT cytotoxicity assay, LO2; format: cell-based; conditions: 72 h
Method: as §2

[25] = tested on: panel of cancer cells; assay: MTT cytotoxicity assay, summary over the panel of cancer cells; format: cell-based; conditions: range over the cancer cell lines of Table 1, MTT, 72 h; read-out: mean IC50 values ranged (over the cancer cell lines)
Method: as §2

Row | Compound | Resistant Factor, A549 [4] | Resistant Factor, MCF-7 [5] | Resistant Factor, HCT-8 [6] | pIC50 [8] | pIC50 [1] | pIC50 [9] | Resistant Factor, A2780 [9] | pIC50 ([2]; 72 h) | pIC50 [10] | pIC50 [11] | pIC50 [12] | pIC50 [13] | pIC50 [14] | pIC50 [15] | pIC50 [16] | Resistant Factor, HCT116 p53-/- vs p53+/+ [16] | pIC50 [17] | pIC50 [18] | pIC50 [4] | pIC50 [19] | further results
1 | CC(=O)O[C@H]1C(=O)[C@@]2(C)[C@H]([C@H](OC(=O)c3ccccc3)[C@]3(O)C[C@H](OC(=O)[C@H](O)[C@@H](NC(=O)c4ccccc4)c4ccccc4)C(C)=C1C3(C)C)[C@]1(OC(C)=O)CO[C@@H]1C[C@@H]2O [Taxol, reference compound] | 42.4 | 4.51 | >15.9 | – | – | – | – | – | – | – | – | – | – | – | – | – | – | – | – | – | pIC50 ([1]; Homo sapiens): 4.90; pIC50 ([2]; Homo sapiens, MCF7, 72 h): 4.91; resistant factor in taxol-resistant cancers (summary) [3]: up to 42.4; pIC50 ([4]; Homo sapiens): 4.18; pIC50 ([5]; Homo sapiens, MCF7): 4.26; pIC50 ([6]; Homo sapiens): < 3.70; pIC50 ([7]; Homo sapiens): 5.81
2 | COc1ccnc(-c2cc(OC)ccn2)c1.COc1ccnc(-c2cc(OC)ccn2)c1.COc1ccnc(-c2cc(OC)ccn2)c1.F[P-](F)(F)(F)(F)F.F[P-](F)(F)(F)(F)F.F[P-](F)(F)(F)(F)F.[Co+3] [complex 5, [Co^III(4,4’-(OMe)2-bpy)3](PF6)3] | 0.19 | 0.66 | 0.24 | 5.06 | 5.37 | 4.57 | 1.13 | 5.02 | 4.89 | 5.27 | 5.03 | 5.06 | 4.85 | 4.97 | 4.38 | 0.53 | 4.67 | 4.11 | 5.55 | 4.68 | Resistant Factor, SGC-7901 [19]: 0.96; pIC50 [20]: 4.73; pIC50 [21]: 4.62; pIC50 [5]: 5.20; pIC50 [22]: 4.81; pIC50 [6]: 5.98; pIC50 [23]: 4.69; Resistant Factor, OV2008/C13 pair [23]: 1.45; pIC50 [24]: 4.69; pIC50 [7]: 4.82
3 | CCCCCCCCCc1ccnc(-c2cc(CCCCCCCCC)ccn2)c1.CCCCCCCCCc1ccnc(-c2cc(CCCCCCCCC)ccn2)c1.CCCCCCCCCc1ccnc(-c2cc(CCCCCCCCC)ccn2)c1.F[P-](F)(F)(F)(F)F.F[P-](F)(F)(F)(F)F.F[P-](F)(F)(F)(F)F.[Co+3] [complex 6, [Co^III(4,4’-(C9H19)2-bpy)3](PF6)3] | 0.05 | 0.39 | 0.73 | 4.57 | 4.25 | 4.54 | 0.96 | 4.55 | 4.67 | 4.27 | 4.62 | 4.98 | 4.31 | 4.43 | 4.47 | 0.93 | 4.44 | 4.44 | 5.59 | 4.44 | Resistant Factor, SGC-7901 [19]: 0.99; pIC50 [20]: 4.08; pIC50 [25]: 4.08 to 4.98; pIC50 [21]: 4.52; pIC50 [5]: 4.95; pIC50 [22]: 4.59; pIC50 [6]: 4.39; pIC50 [23]: 4.03; Resistant Factor, OV2008/C13 pair [23]: 1.87; pIC50 [24]: 4.40; pIC50 [7]: 4.27
